Test results as given in ChEMBL document CHEMBL4806958, “Anti-cancer/anti-fibrosis compounds” (2020).
Each block holds one compound with its values, some of them ahead of it. Active and inactive are the calls of the source. The calls are words filed in the database; no cut-off is given here.

What was measured:
[1] = biological target: Casein kinase II subunit alpha (Homo sapiens, UniProt P68400); experiment: Inhibition of CSNK2A1(unknown origin) using Ser/Thr 11 as substrate incubated for 60 mins in presence of ATP by Z'-LYTE assay
Sequence of Casein kinase II subunit alpha (P68400 whole entry): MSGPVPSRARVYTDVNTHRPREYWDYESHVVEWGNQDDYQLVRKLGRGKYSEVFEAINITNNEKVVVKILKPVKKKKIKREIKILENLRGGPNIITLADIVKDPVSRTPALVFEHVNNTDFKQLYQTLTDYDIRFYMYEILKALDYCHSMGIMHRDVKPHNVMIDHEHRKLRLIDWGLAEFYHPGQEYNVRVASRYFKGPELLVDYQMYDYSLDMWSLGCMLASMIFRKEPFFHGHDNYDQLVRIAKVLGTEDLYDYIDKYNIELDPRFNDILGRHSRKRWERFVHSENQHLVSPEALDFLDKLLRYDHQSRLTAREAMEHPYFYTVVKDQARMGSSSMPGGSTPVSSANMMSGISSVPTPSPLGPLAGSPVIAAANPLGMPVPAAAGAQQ

A204 = experiment: Cytotoxicity against human A204 cells assessed as reduction in cell viability and measured after 7 days by Celltiter-glo luminescent cell viability assay; type: functional, cell-based; conditions: A204, 168 h
MV4-11 [2] = experiment: Down regulation of phosphorylated-STAT5 level in human MV-4-11 cells after 24 hrs by Western blotting analysis; type: functional, cell-based; conditions: dose 0.03-10 µM
MV4-11 [3] = experiment: Down regulation of YAP level in human MV-4-11 cells at 0.03 to 3 uM after 48 hrs by Western blotting analysis; type: functional, cell-based; conditions: dose 0.03-3 µM
MV4-11 [4] = experiment: Down regulation of MCL-1 level in human MV-4-11 cells at 0.03 to 3 uM after 48 hrs by Western blotting analysis; type: functional, cell-based; conditions: dose 0.03-3 µM
[5] = Toxicity in Ncr nu/nu mouse xenografted with human MV-4-11 cells assessed as effect on body weight at 50 mg/kg, po administered twice a day for 21 days and measured for every 3 days; type: organism-based; conditions: in vivo, 504 h, time 21 day
MOLM-14 [6] = experiment: Down regulation of phosphorylated-STAT1 level in human MOLM-14 cells at 0.03 to 3 uM after 48 hrs by Western blotting analysis; type: functional, cell-based; conditions: dose 0.03-3 µM
[7] = biological target: Homeodomain-interacting protein kinase 2 (Homo sapiens, UniProt Q9H2X6); experiment: Inhibition of HIPK2 (unknown origin) using Ser/Thr 09 as substrate incubated for 60 mins in presence of ATP by Z'-Lyte assay
Sequence of Homeodomain-interacting protein kinase 2 (Q9H2X6 whole entry): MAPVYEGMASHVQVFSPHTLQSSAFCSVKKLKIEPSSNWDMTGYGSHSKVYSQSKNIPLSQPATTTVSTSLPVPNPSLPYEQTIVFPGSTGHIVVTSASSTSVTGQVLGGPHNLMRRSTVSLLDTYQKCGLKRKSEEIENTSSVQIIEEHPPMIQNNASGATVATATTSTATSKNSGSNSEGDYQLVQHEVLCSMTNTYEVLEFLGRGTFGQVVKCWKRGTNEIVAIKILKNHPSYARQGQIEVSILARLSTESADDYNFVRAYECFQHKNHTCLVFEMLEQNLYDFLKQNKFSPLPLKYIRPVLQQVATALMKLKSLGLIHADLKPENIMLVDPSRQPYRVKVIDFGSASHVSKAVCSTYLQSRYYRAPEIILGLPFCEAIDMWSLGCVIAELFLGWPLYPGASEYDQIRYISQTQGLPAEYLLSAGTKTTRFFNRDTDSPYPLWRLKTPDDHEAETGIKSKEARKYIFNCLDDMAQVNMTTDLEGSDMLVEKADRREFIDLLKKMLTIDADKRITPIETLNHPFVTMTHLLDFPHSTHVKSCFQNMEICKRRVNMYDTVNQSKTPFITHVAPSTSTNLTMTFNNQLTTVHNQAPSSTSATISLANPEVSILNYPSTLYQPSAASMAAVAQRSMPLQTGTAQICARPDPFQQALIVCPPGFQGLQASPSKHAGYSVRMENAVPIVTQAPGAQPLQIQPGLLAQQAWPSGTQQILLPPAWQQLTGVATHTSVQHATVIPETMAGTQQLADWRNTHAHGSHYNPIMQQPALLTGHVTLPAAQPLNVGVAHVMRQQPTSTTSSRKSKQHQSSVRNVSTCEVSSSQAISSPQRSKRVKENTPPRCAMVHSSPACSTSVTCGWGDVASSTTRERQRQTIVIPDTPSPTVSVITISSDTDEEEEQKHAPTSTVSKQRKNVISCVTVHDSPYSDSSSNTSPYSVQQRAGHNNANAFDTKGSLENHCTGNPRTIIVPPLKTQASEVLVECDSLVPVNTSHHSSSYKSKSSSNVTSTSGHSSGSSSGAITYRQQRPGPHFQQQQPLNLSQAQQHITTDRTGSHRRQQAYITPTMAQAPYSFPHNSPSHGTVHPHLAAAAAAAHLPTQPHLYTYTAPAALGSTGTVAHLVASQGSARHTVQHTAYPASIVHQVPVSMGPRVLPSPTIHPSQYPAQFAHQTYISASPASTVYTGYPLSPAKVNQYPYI

CDK8/Cyclin C = CDK8/Cyclin C (Homo sapiens, UniProt P49336); experiment: Inhibition of kinase tracer 236 binding to His-tagged CDK8/cyclin C (unknown origin) incubated for 60 mins by LanthaScreen Eu-Kinase binding assay; type: protein-complex assay
Sequence of CDK8/Cyclin C (P49336 whole entry): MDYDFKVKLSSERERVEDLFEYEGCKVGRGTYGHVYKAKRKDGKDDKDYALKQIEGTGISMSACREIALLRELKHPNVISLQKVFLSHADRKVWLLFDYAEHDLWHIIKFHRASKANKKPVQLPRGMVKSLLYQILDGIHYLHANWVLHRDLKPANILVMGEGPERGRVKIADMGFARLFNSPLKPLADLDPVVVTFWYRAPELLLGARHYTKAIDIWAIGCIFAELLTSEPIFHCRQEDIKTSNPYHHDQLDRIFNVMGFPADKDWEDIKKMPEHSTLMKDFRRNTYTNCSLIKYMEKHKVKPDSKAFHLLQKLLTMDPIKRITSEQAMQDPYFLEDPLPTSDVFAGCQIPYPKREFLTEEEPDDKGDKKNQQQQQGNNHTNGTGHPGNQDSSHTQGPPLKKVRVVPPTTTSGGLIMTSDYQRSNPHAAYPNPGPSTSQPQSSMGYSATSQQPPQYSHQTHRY
Sequence of CDK8/Cyclin C (P24863 whole entry, further chain): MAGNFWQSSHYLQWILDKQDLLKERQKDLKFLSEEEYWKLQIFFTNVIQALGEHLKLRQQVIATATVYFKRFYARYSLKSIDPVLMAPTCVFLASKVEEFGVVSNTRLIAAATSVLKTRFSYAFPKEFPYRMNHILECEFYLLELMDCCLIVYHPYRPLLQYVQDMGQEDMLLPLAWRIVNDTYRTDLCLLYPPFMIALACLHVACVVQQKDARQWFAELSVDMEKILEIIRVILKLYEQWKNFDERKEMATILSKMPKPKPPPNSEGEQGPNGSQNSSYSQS

U-251 = experiment: Cytotoxicity against human U251 cells assessed as reduction in cell viability and measured after 7 days by Celltiter-glo luminescent cell viability assay; type: functional, cell-based; conditions: U-251, 168 h
A549 = experiment: Cytotoxicity against human A549 cells assessed as reduction in cell viability measured after 7 days by Celltiter-glo luminescent cell viability assay; type: functional, cell-based; conditions: A549, 168 h
HCT-116 = experiment: Cytotoxicity against human HCT-116 cells assessed as reduction in cell viability measured after 7 days by Celltiter-glo luminescent cell viability assay; type: functional, cell-based; conditions: HCT-116, 168 h
OE33 = experiment: Cytotoxicity against human OE33 cells assessed as reduction in cell viability measured after 7 days by Celltiter-glo luminescent cell viability assay; type: functional, cell-based; conditions: OE33, 168 h
MOLM-14 [8] = experiment: Down regulation of phosphorylated-STAT5 level in human MOLM-14 cells at 0.03 to 3 uM after 24 hrs by Western blotting analysis; type: functional, cell-based; conditions: dose 0.03-3 µM
MOLM-14 [9] = experiment: Down regulation of phosphorylated-STAT1 level in mouse xenografted with human MOLM-14 cells at 50 mg/kg, po administered twice a day for 21 days by Western blotting analysis; type: functional, organism-based; conditions: time 21.0 day
MOLM-14 [10] = experiment: Cytotoxicity against human MOLM-14 cells assessed as reduction in cell viability measured after 7 days by Celltiter-glo luminescent cell viability assay; type: functional, cell-based; conditions: MOLM-14, 168 h
MOLM-14 [11] = experiment: Down regulation of phosphorylated-STAT5 level in mouse xenografted with human MOLM-14 cells at 50 mg/kg, po administered twice a day for 21 days by Western blotting analysis; type: functional, organism-based; conditions: time 21.0 day
MV4-11 [12] = experiment: Cytotoxicity against human MV-4-11 cells assessed as reduction in cell viability measured after 7 days by Celltiter-glo luminescent cell viability assay; type: functional, cell-based; conditions: MV4-11, 168 h
COLO357 = experiment: Cytotoxicity against human COLO-357 cells assessed as reduction in cell viability and measured after 7 days by Celltiter-glo luminescent cell viability assay; type: functional, cell-based; conditions: COLO357, 168 h
[13] = Cytotoxicity against human H2030-Brm3 cells assessed as reduction in cell viability measured after 7 days by Celltiter-glo luminescent cell viability assay; type: functional, cell-based; conditions: H2030-BrM3, 168 h
MV4-11 [14] = experiment: Down regulation of C-MYC level in human MV-4-11 cells at 0.03 to 3 uM after 48 hrs by Western blotting analysis; type: functional, cell-based; conditions: dose 0.03-3 µM
SW-620 [15] = experiment: Cytotoxicity against human SW620 cells assessed as reduction in cell viability measured after 7 days in presence of glycolysis inhibitor 2-DG by Celltiter-glo luminescent cell viability assay; type: functional, cell-based; conditions: SW-620, 168 h
MOLM-14 [16] = experiment: Down regulation of phosphorylated-STAT5 level in human MOLM-14 cells at 0.03 to 3 uM after 48 hrs by Western blotting analysis; type: functional, cell-based; conditions: dose 0.03-3 µM
Huh-7 = experiment: Cytotoxicity against human Huh-7 cells assessed as reduction in cell viability and measured after 7 days by Celltiter-glo luminescent cell viability assay; type: functional, cell-based; conditions: Huh-7, 168 h
MOLM-14 [17] = experiment: Antitumor activity against human MOLM-14 cells xenografted in athymic nude mouse assessed as tumor growth inhibition at 50 mg/kg, po administered twice a day with 5 days on and 2 days off dosing schedule for 3 weeks and measured every other day; type: functional, organism-based
[18] = Cytotoxicity against human TG-1 cells assessed as reduction in cell viability measured after 7 days by Celltiter-glo luminescent cell viability assay; type: functional, cell-based; conditions: TG1, 168 h
MV4-11 [19] = experiment: Down regulation of phosphorylated-STAT1 level in human MV-4-11 cells after 24 hrs by Western blotting analysis; type: functional, cell-based; conditions: dose 0.03-10 µM
MSTO-211H = experiment: Cytotoxicity against human MSTO-211H cells assessed as reduction in cell viability and measured after 7 days by Celltiter-glo luminescent cell viability assay; type: functional, cell-based; conditions: 168 h
RS4-11 = experiment: Cytotoxicity against human RS4-11 cells assessed as reduction in cell viability measured after 7 days by Celltiter-glo luminescent cell viability assay; type: functional, cell-based; conditions: RS4-11, 168 h
MOLM-14 [20] = experiment: Down regulation of phosphorylated-STAT1 level in human MOLM-14 cells at 0.03 to 3 uM after 24 hrs by Western blotting analysis; type: functional, cell-based; conditions: dose 0.03-3 µM
NCI-H2052 = experiment: Cytotoxicity against human H2052 cells assessed as reduction in cell viability and measured after 7 days by Celltiter-glo luminescent cell viability assay; type: functional, cell-based; conditions: NCI-H2052, 168 h
BT-474 = experiment: Cytotoxicity against human BT474 cells assessed as reduction in cell viability and measured after 7 days by Celltiter-glo luminescent cell viability assay; type: functional, cell-based; conditions: BT-474, 168 h
[21] = Cytotoxicity against human H290 cells assessed as reduction in cell viability and measured after 7 days by Celltiter-glo luminescent cell viability assay; type: functional, cell-based; conditions: NCI-H290, 168 h
HeLa = experiment: Cytotoxicity against human HeLa cells assessed as reduction in cell viability measured after 7 days by Celltiter-glo luminescent cell viability assay; type: functional, cell-based; conditions: 168 h
MCF7 = experiment: Cytotoxicity against human MCF7 cells assessed as reduction in cell viability and measured after 7 days by Celltiter-glo luminescent cell viability assay; type: functional, cell-based; conditions: MCF7, 168 h
MV4-11 [22] = experiment: Down regulation of CTGF level in human MV-4-11 cells at 0.03 to 3 uM after 48 hrs by Western blotting analysis; type: functional, cell-based; conditions: dose 0.03-3 µM
MV4-11 [23] = experiment: Antitumor activity against human MV-4-11 cells xenografted in NCr nu/nu mouse assessed as tumor growth inhibition at 50 mg/kg, po administered twice a day for 21 days and measured for every 3 days; type: functional, organism-based; conditions: time 21.0 day
SET-2 = experiment: Cytotoxicity against human SET2 cells assessed as reduction in cell viability measured after 7 days by Celltiter-glo luminescent cell viability assay; type: functional, cell-based; conditions: SET-2, 168 h
MV4-11 [24] = experiment: Down regulation of phosphorylated-STAT1 level in human MV-4-11 cells after 48 hrs by Western blotting analysis; type: functional, cell-based; conditions: dose 0.03-3 µM
MOLM-14 [25] = experiment: Down regulation of phosphorylated-STAT1 level in mouse xenografted with human MOLM-14 cells by Western blotting analysis; type: functional, cell-based; conditions: dose 10-100 mg/kg
MOLM-14 [26] = experiment: Down regulation of phosphorylated-STAT3 level in human MOLM-14 cells at 0.03 to 3 uM after 48 hrs by Western blotting analysis; type: functional, cell-based; conditions: dose 0.03-3 µM
[27] = Cytotoxicity against human A549-Brm3 cells assessed as reduction in cell viability measured after 7 days by Celltiter-glo luminescent cell viability assay; type: functional, cell-based; conditions: A549-BrM3, 168 h
MV4-11 [28] = experiment: Down regulation of phosphorylated-STAT3 level in human MV-4-11 cells after 24 hrs by Western blotting analysis; type: functional, cell-based; conditions: dose 0.03-10 µM
SW-620 [29] = experiment: Cytotoxicity against human SW620 cells assessed as reduction in cell viability measured after 7 days by Celltiter-glo luminescent cell viability assay; type: functional, cell-based; conditions: SW-620, 168 h
[30] = biological target: Cyclin-dependent kinase 19 (Homo sapiens, UniProt Q9BWU1); experiment: Inhibition of kinase tracer 236 binding to GST-tagged CDK19 (unknown origin) incubated for 60 mins by LanthaScreen Eu-Kinase binding assay
Sequence of Cyclin-dependent kinase 19 (Q9BWU1 whole entry): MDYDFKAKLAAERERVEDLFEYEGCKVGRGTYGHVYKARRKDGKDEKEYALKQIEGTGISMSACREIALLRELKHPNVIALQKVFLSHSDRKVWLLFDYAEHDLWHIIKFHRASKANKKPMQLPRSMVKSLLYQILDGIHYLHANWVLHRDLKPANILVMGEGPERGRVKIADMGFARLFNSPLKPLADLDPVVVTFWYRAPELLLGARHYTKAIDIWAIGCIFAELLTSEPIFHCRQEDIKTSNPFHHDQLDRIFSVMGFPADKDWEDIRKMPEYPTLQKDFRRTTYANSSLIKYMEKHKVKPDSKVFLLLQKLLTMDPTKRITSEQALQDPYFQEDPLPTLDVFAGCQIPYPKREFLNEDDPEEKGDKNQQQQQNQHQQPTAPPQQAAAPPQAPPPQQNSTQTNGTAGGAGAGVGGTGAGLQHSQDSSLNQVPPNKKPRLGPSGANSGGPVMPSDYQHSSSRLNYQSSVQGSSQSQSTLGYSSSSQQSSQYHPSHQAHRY

MV4-11 [31] = experiment: Down regulation of CYR61 level in human MV-4-11 cells at 0.03 to 3 uM after 48 hrs by Western blotting analysis; type: functional, cell-based; conditions: dose 0.03-3 µM
MOLM-14 [32] = experiment: Down regulation of phosphorylated-STAT3 level in human MOLM-14 cells at 0.03 to 3 uM after 24 hrs by Western blotting analysis; type: functional, cell-based; conditions: dose 0.03-3 µM
[33] = Toxicity in athymic nude mouse xenografted with human MOLM-14 cells assessed as effect on body weight at 50 mg/kg, po administered twice a day with 5 days on and 2 days off dosing schedule for 21 days and measured for every other day; type: organism-based; conditions: in vivo, 504 h, time 3 weeks
MV4-11 [34] = experiment: Down regulation of phosphorylated-STAT3 level in human MV-4-11 cells after 48 hrs by Western blotting analysis; type: functional, cell-based; conditions: dose 0.03-3 µM
[35] = Cytotoxicity against human CLL-119 cells assessed as reduction in cell viability measured after 7 days by Celltiter-glo luminescent cell viability assay; type: functional, cell-based; conditions: CLL-119, 168 h
MV4-11 [36] = experiment: Down regulation of phosphorylated-STAT5 level in human MV-4-11 cells after 48 hrs by Western blotting analysis; type: functional, cell-based; conditions: dose 0.03-3 µM
COLO 205 = experiment: Cytotoxicity against human COLO-205 cells assessed as reduction in cell viability measured after 7 days by Celltiter-glo luminescent cell viability assay; type: functional, cell-based; conditions: COLO 205, 168 h

- IC50 [1]: < 300 nM
SMILES: O=C(O)c1ccc2c(c1)cc(Nc1ccc(Cl)cc1)c1ccncc12

- IC50 [1]: < 300 nM
SMILES: CCC(C)Nc1cc2cc(C(=O)O)ccc2c2cnccc12 (stereo not drawn)

- IC50 [1]: < 300 nM
SMILES: O=C(O)c1ccc2c(c1)cc(NC1CCCCC1)c1ccncc12

The next lines start with the compound.

SMILES: O=C(O)c1ccc2c(c1)cc(-c1cc[nH]n1)c1ccncc12
- IC50 [1]: < 300 nM

SMILES: Nc1ccc(-c2cc3cc(C(=O)O)ccc3c3cnccc23)cn1
- IC50 [1]: < 300 nM

SMILES: O=C(O)c1ccc2c(c1)cc(C1CC1)c1ccncc12
- IC50 [1]: < 300 nM

SMILES: Nc1nccc2c(Br)cc3cc(C(=O)[O-])ccc3c12.[Na+]
- IC50 (A204): 1000 nM
- Activity (MV4-11 [2]): Dose-Dependent Effect
- Activity (MV4-11 [3]): Active
- Activity (MV4-11 [4]): Active
- Activity [5]: Non-Toxic
- Activity (MOLM-14 [6]): Active
- IC50 [7]: < 300 nM
- IC50 (CDK8/Cyclin C): < 300 nM
- IC50 (U-251): 1000 nM
- IC50 (A549): 1000 nM
- IC50 (HCT-116): 1000 nM
- IC50 (OE33): < 1000 nM
- Activity (MOLM-14 [8]): Active
- Activity (MOLM-14 [9]): Active
- IC50 (MOLM-14 [10]): < 1000 nM
- Activity (MOLM-14 [11]): Active
- IC50 (MV4-11 [12]): < 1000 nM
- IC50 (COLO357): 1000 nM
- IC50 [13]: < 1000 nM
- Activity (MV4-11 [14]): Active
- IC50 (SW-620 [15]): < 1000 nM
- Activity (MOLM-14 [16]): Active
- IC50 (Huh-7): < 1000 nM
- Activity (MOLM-14 [17]): Active
- IC50 [18]: < 1000 nM
- Activity (MV4-11 [19]): Dose-Dependent Effect
- IC50 (MSTO-211H): 1000 nM
- IC50 (RS4-11): < 1000 nM
- Activity (MOLM-14 [20]): Active
- IC50 (NCI-H2052): 1000 nM
- IC50 (BT-474): 1000 nM
- IC50 [21]: 1000 nM
- IC50 (HeLa): 1000 nM
- IC50 (MCF7): 1000 nM
- Activity (MV4-11 [22]): Active
- Activity (MV4-11 [23]): Active
- IC50 (SET-2): < 1000 nM
- Activity (MV4-11 [24]): Dose-Dependent Effect
- Activity (MOLM-14 [25]): Dose-Dependent Effect
- Activity (MOLM-14 [26]): Active
- IC50 [27]: 1000 nM
- Activity (MV4-11 [28]): Dose-Dependent Effect
- IC50 (SW-620 [29]): 1000 nM
- IC50 [30]: < 300 nM
- Activity (MV4-11 [31]): Active
- Activity (MOLM-14 [32]): Active
- Activity [33]: Non-Toxic
- Activity (MV4-11 [34]): Dose-Dependent Effect
- IC50 [35]: < 1000 nM
- Activity (MV4-11 [36]): Dose-Dependent Effect
- IC50 [1]: < 300 nM
- IC50 (COLO 205): < 1000 nM
